Measured values taken from US9951079B2, “Fused tricyclic heterocyclic compounds as HIV integrase inhibitors” (MERCK SHARP & DOHME CORP., priority 2013, dated 2018).
Where two headings read alike, the source gives them in different places.

Tested on: HIV-1 (NL4-3 strain)
Assay: Assay for inhibition of HIV replication (MT4-gag-GFP reporter cell line, kinetic assay)
Format: cell-based
Protocol: This assay is a kinetic assay that employs a reporter cell line (MT4-gag-GFP) to quantify the number of new cells infected in each round of replication.
MT4-GFP cells (250,000 cells/ml) were bulk-infected with HIV-1 (NL4-3 strain) at low multiplicity of infection (MOI) in RPMI+10% FBS for 24 hours. Cells were then washed once in RPMI+10% FBS and resuspended in RPMI+0% or 10% or 100% normal human serum (NHS). Test compounds were serial-diluted in DMSO on ECHO. The infected MT4-GFP cells were added to a 384-well poly-D-lysine coated black plate with clear bottom in which the diluted test compounds were placed. The cells were seeded at 8,000 cells per well and the final DMSO concentration was 0.4%. The infected cells (Green GFP cells) were quantified at both 24 and 48 hours post incubation using Acumen eX3. Viral reproductive ratio (R0) was determined using the number of infected cells at 48 hours divided by the number of infected cells at 24 hours. Percent viral growth inhibition was calculated by [1−(R−Rtripledrug)/(RDMSO−Rtripledrug)]*100. Compound potency IP or IC50 was determined by a 4-parameter dose response curve analysis.

[1] = Human immunodeficiency virus 1, NL43, Table A, infected MT4-GFP cells, RPMI + 0% normal human serum, IP from 4-parameter dose response curve, read-out: Wild Type Cell Assay IP (0% NHS)
[2] = Human immunodeficiency virus 1, NL43, Table A, infected MT4-GFP cells, RPMI + 10% normal human serum, read-out: Wild Type Cell Assay IP (10% NHS)
[3] = Human immunodeficiency virus 1, NL43, Table B (selected enantiomeric compounds), 0% normal human serum, read-out: Wild Type Cell Assay IP (0% NHS)
[4] = Table A, infected MT4-GFP cells, RPMI + 10% normal human serum, read-out: Wild Type Cell Assay IP (10% NHS)
[5] = Table B (selected enantiomeric compounds), 100% normal human serum, read-out: Wild Type Cell Assay IP (100% NHS)
[6] = Table B (selected enantiomeric compounds), 0% normal human serum, read-out: Wild Type Cell Assay IP (0% NHS)

CCN1C(=O)c2c(O)c(=O)c(-c3nnc(Cc4ccc(F)cc4)s3)cn2C2COC[C@@H]21 (mixture of isomers) [Compound 7] was tested, and the IC50 [1] was 36 nM and the IC50 [2] was 74 nM.
Compound COCCN1C(=O)c2c(O)c(=O)c(-c3nnc(Cc4ccc(F)cc4F)s3)cn2C2COC[C@@H]21 (mixture of isomers) [Compound 8] has an IC50 [1] of 6 nM and an IC50 [2] of 13 nM.
For CCCN1C(=O)c2c(O)c(=O)c(-c3nnc(Cc4ccc(F)cc4)s3)cn2C2COC[C@@H]21 (mixture of isomers) [Compound 9], the IC50 [1] was 10 nM and the IC50 [2] was 32 nM.
CCC(c1nnc(-c2cn3c(c(O)c2=O)C(=O)N(CC)[C@H]2COCC23)s1)c1ccc(F)cc1F (mixture of isomers) [Compound 6] showed an IC50 [1] of 31 nM and an IC50 [2] of 67 nM.
For CC(C)N1C(=O)c2c(O)c(=O)c(C(=O)NCc3ccc(F)cc3F)cn2C2COC[C@@H]21 (mixture of isomers) [Compound 12], the IC50 [1] was 3 nM and the IC50 [2] was 62 nM.
O=C1N[C@@H]2COC[C@H]2n2cc(-c3nnc(Cc4ccc(F)cc4F)s3)c(=O)c(O)c21 (relative stereo) [Compound 2, trans-8-(5-(2,4-difluorobenzyl)-1,3,4-thiadiazol-2-yl)-6-hydroxy-3a,4-dihydro-1H-furo[3,4-e]pyrido[1,2-a]pyrazine-5,7(3H,10aH)-dione] showed an IC50 [2] of 385 nM.
CCN1C(=O)c2c(O)c(=O)c(-c3nnc(Cc4ccc(F)cc4F)s3)cn2[C@@H]2COC[C@H]21 (relative stereo) [Compound 3, trans-8-(5-(2,4-difluorobenzyl)-1,3,4-thiadiazol-2-yl)-4-ethyl-6-hydroxy-3a,4-dihydro-1H-furo[3,4-e]pyrido[1,2-a]pyrazine-5,7(3H,10aH)-dione] gave an IC50 [2] of 58 nM.
For CCN1C(=O)c2c(O)c(=O)c(-c3cnn(Cc4ccc(F)cc4F)c3)cn2[C@@H]2COC[C@@H]21 (relative stereo) [Compound 14, cis-8-(1-(2,4-difluorobenzyl)-1H-pyrazol-4-yl)-4-ethyl-6-hydroxy-3a,4-dihydro-1H-furo[3,4-e]pyrido[1,2-a]pyrazine-5,7(3H,10aH)-dione], the IC50 [1] was 51 nM and the IC50 [2] was 252 nM.
Work on CCN1C(=O)c2c(O)c(=O)c(-c3nnc(Cc4ccc(F)cc4F)s3)cn2C2COC[C@@H]21 (single isomer, unassigned) [Compound 4, cis-8-(5-(2,4-difluorobenzyl)-1,3,4-thiadiazol-2-yl)-4-ethyl-6-hydroxy-3a,4-dihydro-1H-furo[3,4-e]pyrido[1,2-a]pyrazine-5,7(3H,10aH)-dione] yielded an IC50 [3] of 8 nM, an IC50 [4] of 17 nM and an IC50 [5] of 190 nM.
CCN1C(=O)c2c(O)c(=O)c(-c3nnc(Cc4ccc(F)cc4F)s3)cn2C2COC[C@@H]21 (single isomer, unassigned) [Compound 5, cis-8-(5-(2,4-difluorobenzyl)-1,3,4-thiadiazol-2-yl)-4-ethyl-6-hydroxy-3a,4-dihydro-1H-furo[3,4-e]pyrido[1,2-a]pyrazine-5,7(3H,10aH)-dione] gave an IC50 [1] of 9 nM, an IC50 [4] of 561 nM and an IC50 [5] of 5700 nM.
With CCN1C(=O)c2c(O)c(=O)c(C(=O)NCc3ccc(F)cc3F)cn2C2COC[C@@H]21 (single isomer, unassigned) [Compound 10, cis-N-(2,4-difluorobenzyl)-4-ethyl-6-hydroxy-5,7-dioxo-3,3a,4,5,7,10a-hexahydro-1H-furo[3,4-e]pyrido[1,2-a]pyrazine-8-carboxamide] the IC50 [1] was 4 nM, the IC50 [4] was 8 nM and the IC50 [6] was 80 nM. The IC50 [5] was 71 nM.
Compound CCN1C(=O)c2c(O)c(=O)c(C(=O)NCc3ccc(F)cc3F)cn2C2COC[C@@H]21 (single isomer, unassigned) [Compound 11, cis-N-(2,4-difluorobenzyl)-4-ethyl-6-hydroxy-5,7-dioxo-3,3a,4,5,7,10a-hexahydro-1H-furo[3,4-e]pyrido[1,2-a]pyrazine-8-carboxamide] has an IC50 (Table A, infected MT4-GFP cells, RPMI + 0% normal human serum, IP from 4-parameter dose response curve, read-out: Wild Type Cell Assay IP (0% NHS)) of 6 nM, an IC50 [4] of 148 nM and an IC50 [6] of 38 nM. The IC50 [5] was 2800 nM.
CCN1C(=O)c2c(O)c(=O)c(-c3cn(Cc4ccc(F)cc4F)nn3)cn2[C@@H]2COC[C@@H]21 (single isomer, unassigned) [Compound 15, cis-8-(1-(2,4-Difluorobenzyl)-1H-1,2,3-triazol-4-yl)-4-ethyl-6-hydroxy-3a,4-dihydro-1H-furo[3,4-e]pyrido[1,2-a]pyrazine-5,7(3H,10aH)-dione] showed an IC50 [1] of 80 nM.
CCN1C(=O)c2c(O)c(=O)c(-c3cn(Cc4ccc(F)cc4F)nn3)cn2C2COC[C@@H]21 (single isomer, unassigned) [Compound 16] gave an IC50 [1] of 38 nM, an IC50 [3] of 38 nM and an IC50 (Human immunodeficiency virus 1, NL43, Table B (selected enantiomeric compounds), 100% normal human serum, read-out: Wild Type Cell Assay IP (100% NHS)) of 2700 nM.
O=C1N[C@H]2COCC2n2cc(-c3nnc(Cc4ccc(F)cc4F)s3)c(=O)c(O)c21 (stereo in doubt) [Compound 1, cis-8-(5-(2,4-difluorobenzyl)-1,3,4-thiadiazol-2-yl)-6-hydroxy-3a,4-dihydro-1H-furo[3,4-e]pyrido[1,2-a]pyrazine-5,7(3H,10aH)-dione] gave an IC50 [2] of 400 nM.
For CCN1C(=O)c2c(O)c(=O)c(C(=O)NCc3ccc(F)cc3F)cn2C2COC[C@H]21 (stereo partly shown) [Compound 13], the IC50 [2] was 21 nM.
